Assays:
Settings in all cases: 72 h
Caco-2 [1] = assay: drug sensitivity score (DSS) for viability; higher = more toxic; extreme values may be limits of the assay
U2OS [2] = assay: as above
Calu-3 [3] = assay: as above
Vero E6 [4] = assay: as above
HepG2 [5] = assay: as above
Caco-2 [6] = assay: relative viability EC50 (midpoint between 100% and the lowest measured viability); higher = less toxic
U2OS [7] = assay: as above
Calu-3 [8] = assay: as above
Vero E6 [9] = assay: as above
HepG2 [10] = assay: as above
Caco-2 [11] = assay: cell viability relative to DMSO; higher = less toxic
U2OS [12] = assay: as above
Calu-3 [13] = assay: as above
Vero E6 [14] = assay: as above
HepG2 [15] = assay: as above

Structure (SMILES) | drug sensitivity score (Caco-2 [1]) | drug sensitivity score (U2OS [2]) | drug sensitivity score (Calu-3 [3]) | drug sensitivity score (Vero E6 [4]) | drug sensitivity score (HepG2 [5]) | relative viability EC50 (Caco-2 [6]) [µM] | relative viability EC50 (U2OS [7]) [µM] | relative viability EC50 (Calu-3 [8]) [µM] | relative viability EC50 (Vero E6 [9]) [µM] | relative viability EC50 (HepG2 [10]) [µM] | cell viability (Caco-2 [11]; 1 nM) [%] | cell viability (Caco-2 [11]; 10 nM) [%] | cell viability (Caco-2 [11]; 100 nM) [%] | cell viability (Caco-2 [11]; 1000 nM) [%] | cell viability (Caco-2 [11]; 10000 nM) [%] | cell viability (U2OS [12]; 1 nM) [%] | cell viability (U2OS [12]; 10 nM) [%] | cell viability (U2OS [12]; 100 nM) [%] | cell viability (U2OS [12]; 1000 nM) [%] | cell viability (U2OS [12]; 10000 nM) [%] | cell viability (Calu-3 [13]; 1 nM) [%] | cell viability (Calu-3 [13]; 10 nM) [%] | cell viability (Calu-3 [13]; 100 nM) [%] | cell viability (Calu-3 [13]; 1000 nM) [%] | cell viability (Calu-3 [13]; 10000 nM) [%] | cell viability (Vero E6 [14]; 1 nM) [%] | cell viability (Vero E6 [14]; 10 nM) [%] | cell viability (Vero E6 [14]; 100 nM) [%] | cell viability (Vero E6 [14]; 1000 nM) [%] | cell viability (Vero E6 [14]; 10000 nM) [%] | cell viability (HepG2 [15]; 1 nM) [%] | cell viability (HepG2 [15]; 10 nM) [%] | cell viability (HepG2 [15]; 100 nM) [%] | cell viability (HepG2 [15]; 1000 nM) [%] | cell viability (HepG2 [15]; 10000 nM) [%]
CC(C)c1cc(-c2ccc(F)c3ccccc23)nc(N)n1 | 0 | 0 | 0 | 0 | 0 | > 10 | > 10 | > 10 | > 10 | > 10 | 90.7 | 101 | 102 | 92.7 | 101 | 93.1 | 96.6 | 98.7 | 97.9 | 100 | 80.3 | 103 | 99.7 | 107 | 108 | 94.1 | 98.6 | 98.8 | 102 | 107 | 103 | 119 | 99.2 | 99.3 | 113
CC1(C)OC[C@H](NC(=O)Nc2ccc(Br)cc2Br)[C@H](c2ccccc2)O1 | 0.1 | 0 | 0 | 0 | 0 | > 10 | > 10 | > 10 | > 10 | > 10 | 94.5 | 98.8 | 95.3 | 103 | 85.8 | 93.3 | 98 | 96.6 | 98.5 | 89.6 | 99.1 | 89.6 | 111 | 103 | 92.8 | 102 | 101 | 101 | 93.9 | 95.7 | 95.4 | 89.8 | 93.6 | 91.1 | 95.5
CNC(=O)c1ccc2c(c1)CCO[C@H]2CCN1CCN(c2ccc(C(N)=O)cc2)CC1 | 0 | 0 | 0 | 0 | 0 | > 10 | > 10 | > 10 | > 10 | > 10 | 94.9 | 105 | 91.9 | 102 | 97.1 | 99.5 | 106 | 100 | 103 | 101 | 99.7 | 81.1 | 95.2 | 107 | 100 | 105 | 102 | 104 | 99.1 | 107 | 103 | 104 | 95.2 | 98.9 | 99.6
COC(=O)[C@H](NC(=O)c1cc(-c2ccccc2)nc2ccccc12)c1ccccc1 | 0 | – | 0 | 0 | 0 | > 10 | – | > 10 | > 10 | > 10 | 110 | 94.9 | 106 | 104 | 109 | – | – | – | – | – | 104 | 93 | 101 | 102 | 103 | 92.6 | 91.3 | 91.5 | 92.7 | 100 | 91.4 | 99.6 | 96.4 | 89.6 | 103
COc1cc(OC)c(NC(=O)Nc2cc(C)on2)cc1Cl | 0 | 0 | 0 | 0 | 0 | > 10 | > 10 | > 10 | > 10 | > 10 | 98.9 | 102 | 90.3 | 96.3 | 90 | 97 | 99.9 | 97.2 | 98.4 | 97.4 | 86.7 | 98.4 | 97.2 | 95.1 | 90 | 99 | 104 | 102 | 104 | 96.8 | 102 | 108 | 97 | 110 | 103
COc1cc(Oc2ccnc3cc(OC)c(OC)cc23)ccc1NC(=O)NC(C)c1nccs1 (stereo unspecified) | 0 | 0 | 0 | 0 | 0 | > 10 | > 10 | > 10 | > 10 | > 10 | 100 | 104 | 87.7 | 97.2 | 88.2 | 95.1 | 98.8 | 93.8 | 95.6 | 90.1 | 94.5 | 98.7 | 91.6 | 113 | 97.3 | 100 | 101 | 91 | 96.2 | 95.6 | 93.1 | 104 | 91.7 | 98.8 | 87.9
COc1cc2c(cc1OC)-c1cc3nc4ccccc4nc3n1C(C)(C)C2 | 0 | – | 0 | 0 | 1.8 | > 10 | – | > 10 | > 10 | > 10 | 97.9 | 103 | 106 | 99.1 | 89.1 | – | – | – | – | – | 104 | 103 | 99.8 | 95.2 | 97.3 | 108 | 102 | 104 | 92.2 | 107 | 98.7 | 83.6 | 89.7 | 95.1 | 76.2
COc1ccc(S(=O)(=O)Nc2cc(Cl)cc(Cl)c2OC)cc1N1CCNCC1 | 0 | 0 | 0 | 0 | 0 | > 10 | > 10 | > 10 | > 10 | > 10 | 102 | 97.9 | 97.9 | 92.9 | 94.7 | 109 | 98 | 105 | 96.3 | 100 | 99 | 103 | 99.2 | 106 | 111 | 102 | 103 | 99.1 | 98.7 | 91.2 | 98.9 | 90.2 | 103 | 98.7 | 102
CS(=O)(=O)N1CCc2c(-c3cnc(N)nc3)nc(N3CCOCC3)nc21 | 7 | 4.2 | 7.6 | 5.2 | 6.9 | 1.19 | 1.98 | 1.17 | 1.67 | 1.22 | 93.3 | 97.6 | 96.9 | 72 | 33.3 | 99.5 | 97.5 | 99.9 | 92 | 47.1 | 94.2 | 96.3 | 98.2 | 70.5 | 29.3 | 104 | 108 | 95.3 | 87.4 | 41.7 | 111 | 101 | 95.3 | 72.6 | 33.3
C[C@@H](Oc1ccc2[nH]nc(/C=C/c3cnn(CCO)c3)c2c1)c1c(Cl)cncc1Cl | 6.1 | 14 | 7.2 | 8.9 | 12.1 | 1.61 | 0.582 | 1.26 | 1.35 | 0.617 | 87.3 | 99.5 | 91.5 | 83.3 | 33.1 | 94.3 | 94.3 | 91 | 33.5 | 0.2 | 101 | 99.9 | 98.6 | 75.5 | 31.8 | 95.3 | 92.4 | 98.6 | 71.9 | 12.7 | 108 | 102 | 85.5 | 46.4 | 10.6
C[C@H](NC[C@H](O)CP(=O)(O)CC1CCCCC1)c1ccc(Cl)c(Cl)c1 | 0 | 0 | 0 | 0 | 0 | > 10 | > 10 | > 10 | > 10 | > 10 | 96.1 | 92.1 | 93.9 | 99.5 | 91.4 | 94.6 | 102 | 94.2 | 101 | 99.8 | 76.5 | 104 | 95.2 | 102 | 91.7 | 107 | 101 | 104 | 98.7 | 104 | 103 | 97.6 | 99.3 | 98.6 | 96.8
C[C@H](c1ccc(F)cc1CCCC(=O)O)N(c1cc(F)ccc1F)S(=O)(=O)c1ccc(Cl)cc1 | 0.1 | 0 | 0 | 0 | 0 | > 10 | > 10 | > 10 | > 10 | > 10 | 101 | 97.5 | 112 | 92.6 | 89.5 | 101 | 93.5 | 97.8 | 93.1 | 96.2 | 105 | 98.9 | 99.4 | 103 | 103 | 103 | 100 | 102 | 103 | 98.8 | 93.1 | 103 | 94 | 98.8 | 93.6
Cc1cccc(-c2nn3c(c2-c2ccnc4ccc(C(N)=O)cc24)CCC3)n1 | 0 | 0 | 0 | 0 | 0 | > 10 | > 10 | > 10 | > 10 | > 10 | 96.9 | 87.8 | 93.1 | 100 | 109 | 98.3 | 99.5 | 95.8 | 96 | 92.6 | 95.4 | 108 | 91.4 | 105 | 113 | 98.9 | 99 | 101 | 99.9 | 113 | 103 | 96.5 | 106 | 99.4 | 106
N=C(N)NCCC[C@H](NC(=O)c1sccc1NS(=O)(=O)c1cccc2nsnc12)C(=O)O | 0 | 0 | 0 | 0 | 0 | > 10 | > 10 | > 10 | > 10 | > 10 | 96.9 | 104 | 98.5 | 101 | 105 | 98.3 | 102 | 96.3 | 105 | 98.4 | 92.7 | 110 | 106 | 117 | 110 | 105 | 103 | 101 | 98.4 | 97.1 | 105 | 101 | 95.8 | 105 | 103

— the supplement of paper PMC13380429
